Data on 3 compounds can be found in ChEMBL document CHEMBL4706637, “Design, synthesis and biological evaluation of thioether-containing lenalidomide and pomalidomide derivatives with anti-multiple myeloma activity” (Eur J Med Chem, 2021).

The structures appear in SMILES notation. Activity calls are given as the source filed them. The rule behind the calls is not given here.

For series [1], the target named is DNA-binding protein Ikaros (Homo sapiens) (UniProt Q13422). The series can be described thus: Induction of IKZF1 degradation in human MM1.S cells assessed as reduction in IKZF1 level incubated for 12 hrs by immunoblot analysis. Type of series: cell-based. Conditions: dose 0.02-2 µM.
DNA-binding protein Ikaros (Homo sapiens), sequence (Q13422 whole entry): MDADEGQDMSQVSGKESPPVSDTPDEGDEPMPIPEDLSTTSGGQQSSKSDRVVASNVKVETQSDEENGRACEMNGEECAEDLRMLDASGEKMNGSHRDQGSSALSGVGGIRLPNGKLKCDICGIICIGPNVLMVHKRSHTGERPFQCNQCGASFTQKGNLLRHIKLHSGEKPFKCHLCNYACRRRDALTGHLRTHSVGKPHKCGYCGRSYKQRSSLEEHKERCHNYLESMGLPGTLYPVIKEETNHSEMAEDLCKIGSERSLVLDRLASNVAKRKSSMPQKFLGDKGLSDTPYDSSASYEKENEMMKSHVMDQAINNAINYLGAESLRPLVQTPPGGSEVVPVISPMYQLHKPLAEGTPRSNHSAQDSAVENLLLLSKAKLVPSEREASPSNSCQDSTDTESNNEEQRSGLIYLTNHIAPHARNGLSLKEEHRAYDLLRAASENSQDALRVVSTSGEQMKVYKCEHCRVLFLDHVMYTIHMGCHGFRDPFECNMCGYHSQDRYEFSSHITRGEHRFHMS
Series [2] deals with Zinc finger protein Aiolos (Homo sapiens) (UniProt Q9UKT9). The series can be described thus: Induction of IKZF3 degradation in human MM1.S cells assessed as reduction in IKZF3 level incubated for 12 hrs by immunoblot analysis. The class given is cell-based. Conditions: dose 0.02-2 µM.
Zinc finger protein Aiolos (Homo sapiens), sequence (Q9UKT9 whole entry): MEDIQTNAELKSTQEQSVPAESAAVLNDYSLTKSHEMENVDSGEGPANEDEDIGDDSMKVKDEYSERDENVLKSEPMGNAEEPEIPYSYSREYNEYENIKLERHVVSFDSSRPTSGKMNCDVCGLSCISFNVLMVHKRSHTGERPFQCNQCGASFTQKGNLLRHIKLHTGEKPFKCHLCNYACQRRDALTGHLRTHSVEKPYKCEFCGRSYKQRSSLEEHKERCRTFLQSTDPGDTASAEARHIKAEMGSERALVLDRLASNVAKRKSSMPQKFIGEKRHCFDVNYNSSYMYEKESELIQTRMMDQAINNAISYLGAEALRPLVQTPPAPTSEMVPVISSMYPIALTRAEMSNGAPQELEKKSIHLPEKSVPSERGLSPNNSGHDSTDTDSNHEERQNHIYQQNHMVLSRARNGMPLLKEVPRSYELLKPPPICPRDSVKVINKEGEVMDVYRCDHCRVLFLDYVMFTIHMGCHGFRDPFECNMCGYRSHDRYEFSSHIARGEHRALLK
In series [3] the test system is MM1.S. The series can be described thus: Antiproliferative activity against human MM1.S cells assessed as reduction in cell growth measured after 7 days culturing by CellTiter 96 Aqueous non-radioactive cell proliferation assay. The class given is functional, cell-based. Conditions: 168 h.
Series [4] is described as follows: Half-life in human liver microsomes. Type of series: ADME, Microsome.
The nature of series [5]: Intrinsic clearance in human liver microsomes measured per gm of protein. Type of series: ADME, Microsome.
Series [6] in a line: Intrinsic clearance in human. The class given is ADME.
Series [7] can be described thus: Hepatic intrinsic clearance in human. Type of series: ADME.
Series [8] is described as follows: Metabolic stability in human liver microsomes assessed as parent compound remaining. The class given is ADME, Microsome.
The subject of series [9] is MM1.S. The series can be described thus: Antitumor activity against human MM1.S cells xenografted in CB17-SCID mouse assessed as reduction in tumor weight at 60 mg/kg, po qd for 14 days and measured after 14 days. The class given is functional. The conditions noted are these: 336 h, time 14 day.
Series [10] concerns the target DNA-binding protein Ikaros (Homo sapiens) (UniProt Q13422). The series can be described thus: Induction of IKZF1 degradation in human MM1.S cells assessed as reduction in IKZF1 level at 0.02 to 2 uM incubated for 12 hrs by immunoblot analysis. The class given is cell-based. Conditions: dose 0.02-2 µM.
Series [11] addresses Zinc finger protein Aiolos (Homo sapiens) (UniProt Q9UKT9). The series can be described thus: Induction of IKZF3 degradation in human MM1.S cells assessed as reduction in IKZF3 level at 0.02 to 2 uM incubated for 12 hrs by immunoblot analysis. The conditions noted are these: dose 0.02-2 µM. The class given is cell-based.

With `COc1ccccc1Sc1cccc2c1CN(C1CCC(=O)NC1=O)C2=O` (stereo unspecified), the Activity result in series [1] and in series [2] was “Dose-dependent effect” in each case.

On to `Nc1cccc2c1CN(C1CCC(=O)NC1=O)C2=O` (stereo unspecified) [LENALIDOMIDE], for which the IC50 in the series on MM1.S [3] is 81 nM. Besides, in [4], the half-life amounted to 19.3 h. The CLH in [5] came to 1.8 mL/min/g; in series [7], 127 mL/min. This compound yielded a CL in [6] of 138.7 mL/min. For the same compound, the Stabilty in series [8] is listed as 91.5%. In the series on MM1.S [9], the inhibition in vivo at 60 mg/kg/day was 62.6%.

With `O=C1CCC(N2Cc3c(Sc4ccc(F)cc4)cccc3C2=O)C(=O)N1` (stereo unspecified), the outcome in series [10] and in [11] was Active.
